From ChEMBL document CHEMBL1201862, “PubChem BioAssay data set” (2004)
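Test compounds were applied to cells in 96-well plates for 48 hours at 5 doses. GI50: concentration for 50% inhibition of growth.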 Calls of active or inactive are those of the source. Rule as the data show it: active = GI50 up to about 1.1 µM and inactive = higher.

What was measured:
Experiment in all cases: DTP human tumour cell line panel, 48 h
SNB-75 = test system: SNB-75
NCI/ADR-RES = test system: NCI/ADR-RES
UO-31 = test system: UO-31
Malme-3M = test system: Malme-3M
COLO 205 = test system: COLO 205
SK-OV-3 = test system: SK-OV-3
PC-3 = test system: PC-3
UACC-62 = test system: UACC-62
MCF7 = test system: MCF7
MDA-MB-435 = test system: MDA-MB-435
SK-MEL-28 = test system: SK-MEL-28
MDA-MB-231 = test system: MDA-MB-231
SK-MEL-2 = test system: SK-MEL-2
HOP-62 = test system: HOP-62
LOX IMVI = test system: LOX IMVI
MDA-N = test system: MDA-N
A498 = test system: A498
OVCAR-4 = test system: OVCAR-4
SF-539 = test system: SF-539
HCT-15 = test system: HCT-15

SMILES | GI50 (SNB-75) | GI50 (NCI/ADR-RES) | GI50 (UO-31) | GI50 (Malme-3M) | GI50 (COLO 205) | GI50 (SK-OV-3) | GI50 (PC-3) | GI50 (UACC-62) | GI50 (MCF7) | GI50 (MDA-MB-435) | GI50 (SK-MEL-28) | GI50 (MDA-MB-231) | GI50 (SK-MEL-2) | GI50 (HOP-62) | GI50 (LOX IMVI) | GI50 (MDA-N) | GI50 (A498) | GI50 (OVCAR-4) | GI50 (SF-539) | GI50 (HCT-15)
COCCCNC(=O)C1=C(C)NC(C)=C(C(=O)NCCCOC)C1 | 21 µM (inactive) | > 100 µM (inactive) | 71.4 µM (inactive) | 18.1 µM (inactive) | > 100 µM (inactive) | > 100 µM (inactive) | > 100 µM (inactive) | > 100 µM (inactive) | > 100 µM (inactive) | > 100 µM (inactive) | > 100 µM (inactive) | > 100 µM (inactive) | > 100 µM (inactive) | > 100 µM (inactive) | > 100 µM (inactive) | > 100 µM (inactive) | > 100 µM (inactive) | > 100 µM (inactive) | > 100 µM (inactive) | –
C=C1C2CC[C@@](C)(O)C2[C@H]2OC(=O)C(=C)[C@@H]2C[C@H]1O (stereo partly drawn) | 43.4 µM (inactive) | 18.8 µM (inactive) | 13.6 µM (inactive) | 15.2 µM (inactive) | 15 µM (inactive) | 29.1 µM (inactive) | 34.4 µM (inactive) | 16 µM (inactive) | 14.2 µM (inactive) | 26 µM (inactive) | 26 µM (inactive) | 18.8 µM (inactive) | 20.9 µM (inactive) | 30.7 µM (inactive) | 15 µM (inactive) | 24.5 µM (inactive) | 41 µM (inactive) | 14.9 µM (inactive) | 14.2 µM (inactive) | 16.7 µM
C=C1C(=O)OC2C1CCC(=C)C1CC(O)C(=C)C12 (stereo not drawn) | 19.7 µM (inactive) | 24 µM (inactive) | 15.3 µM (inactive) | 14.3 µM (inactive) | 2.55 µM (inactive) | 33.8 µM (inactive) | 13.4 µM (inactive) | 13.5 µM (inactive) | 7.43 µM (inactive) | 19.5 µM (inactive) | 14.4 µM (inactive) | 16.3 µM (inactive) | 14.3 µM (inactive) | 21.2 µM (inactive) | 7.52 µM (inactive) | 11 µM (inactive) | 20 µM (inactive) | 16.2 µM (inactive) | 16.9 µM (inactive) | 10.8 µM
O=c1c(Cc2ccccc2Cc2c(O)oc3ccccc3c2=O)c(O)oc2ccccc12 | 31.6 µM (inactive) | > 100 µM (inactive) | > 100 µM (inactive) | > 100 µM (inactive) | > 100 µM (inactive) | > 100 µM (inactive) | > 100 µM (inactive) | > 100 µM (inactive) | > 100 µM (inactive) | > 100 µM (inactive) | > 100 µM (inactive) | > 100 µM (inactive) | > 100 µM (inactive) | > 100 µM (inactive) | > 100 µM (inactive) | > 100 µM (inactive) | > 100 µM (inactive) | > 100 µM (inactive) | > 100 µM (inactive) | > 100 µM
O=C1NC2C(=CC(O)C(O)C2O)c2cc3c(cc21)OCO3 (stereo not drawn) | 0.568 µM (active) | 0.621 µM (active) | 0.564 µM (active) | 0.488 µM (active) | 0.2 µM (active) | 0.619 µM (active) | 0.141 µM (active) | 0.421 µM (active) | 0.338 µM (active) | 0.0951 µM (active) | 0.417 µM (active) | 0.0486 µM (active) | 0.351 µM (active) | 0.463 µM (active) | 0.308 µM (active) | 0.0832 µM (active) | 0.759 µM (active) | 0.338 µM (active) | 0.458 µM (active) | 0.52 µM
Cc1n[nH]c(=O)n1/N=C\CC/C=N\n1c(C)n[nH]c1=O | > 100 µM (inactive) | > 100 µM (inactive) | > 100 µM (inactive) | > 100 µM (inactive) | > 100 µM (inactive) | > 100 µM (inactive) | > 100 µM (inactive) | > 100 µM (inactive) | > 100 µM (inactive) | > 100 µM (inactive) | > 100 µM (inactive) | > 100 µM (inactive) | > 100 µM (inactive) | > 100 µM (inactive) | > 100 µM (inactive) | > 100 µM (inactive) | > 100 µM (inactive) | > 100 µM (inactive) | > 100 µM (inactive) | > 100 µM
C[C@]1(CO)[C@H]2CC[C@@]34C=C[C@@](CO)(CC[C@H]3[C@]2(C)CC[C@H]1O)C4 | 17.9 µM (inactive) | 27.3 µM (inactive) | 35.4 µM (inactive) | 20.5 µM (inactive) | 26.4 µM (inactive) | 38.6 µM (inactive) | 44.3 µM (inactive) | 94.6 µM (inactive) | 59.4 µM (inactive) | 77.6 µM (inactive) | > 100 µM (inactive) | 28.2 µM (inactive) | > 100 µM (inactive) | 62.2 µM (inactive) | 48.4 µM (inactive) | 34.2 µM (inactive) | > 100 µM (inactive) | 13.3 µM (inactive) | 96.2 µM (inactive) | 36.5 µM
C[n+]1c(-c2ccc(/C=N/NC(=O)c3ccc(C(=O)N/N=C/c4ccc(-c5cn6ccccc6[n+]5C)cc4)cc3)cc2)cn2ccccc21 | > 100 µM (inactive) | > 100 µM (inactive) | > 59.8 µM (inactive) | > 54.6 µM (inactive) | > 100 µM (inactive) | > 100 µM (inactive) | > 100 µM (inactive) | > 81.8 µM (inactive) | > 100 µM (inactive) | > 75.7 µM (inactive) | > 100 µM (inactive) | > 74.3 µM (inactive) | > 100 µM (inactive) | > 100 µM (inactive) | > 100 µM (inactive) | > 70 µM (inactive) | 29.2 µM (inactive) | > 100 µM (inactive) | > 84.9 µM (inactive) | > 100 µM
CC(C)[Si]1(C(C)C)OCC2OC(n3c(C(=O)c4ccccc4)cc(=O)[nH]c3=O)CC2O[Si](C(C)C)(C(C)C)O1 (stereo not drawn) | 3.02 µM (inactive) | 10.2 µM (inactive) | 2.47 µM (inactive) | 3.75 µM (inactive) | 3.72 µM (inactive) | 11.9 µM (inactive) | 2.2 µM (inactive) | 2.81 µM (inactive) | 2.94 µM (inactive) | 3.1 µM (inactive) | 3.72 µM (inactive) | 2.37 µM (inactive) | 5.05 µM (inactive) | 7.03 µM (inactive) | 2 µM (inactive) | 3.2 µM (inactive) | 11.4 µM (inactive) | 2.93 µM (inactive) | 2.88 µM (inactive) | 2.72 µM
Cc1nc2ccccc2c(-n2cccn2)c1CCn1cccn1 | – | > 100 µM (inactive) | 1.77 µM (inactive) | > 100 µM (inactive) | 96.6 µM (inactive) | > 100 µM (inactive) | > 100 µM (inactive) | 80.2 µM (inactive) | > 100 µM (inactive) | > 100 µM (inactive) | > 100 µM (inactive) | 51.4 µM (inactive) | > 100 µM (inactive) | > 100 µM (inactive) | 50.6 µM (inactive) | > 100 µM (inactive) | 46.3 µM (inactive) | 23.8 µM (inactive) | > 100 µM (inactive) | > 100 µM
Cn1cncc1CC1COC(=O)C1C(O)c1ccccc1 (stereo not drawn) | > 100 µM (inactive) | > 100 µM (inactive) | – | > 100 µM (inactive) | > 100 µM (inactive) | > 100 µM (inactive) | > 100 µM (inactive) | > 100 µM (inactive) | > 100 µM (inactive) | > 100 µM (inactive) | > 100 µM (inactive) | > 100 µM (inactive) | > 100 µM (inactive) | > 100 µM (inactive) | > 100 µM (inactive) | > 100 µM (inactive) | > 100 µM (inactive) | > 100 µM (inactive) | > 100 µM (inactive) | > 100 µM
CN=C(n1ccnc1)n1ccnc1 | > 100 µM (inactive) | > 100 µM (inactive) | > 100 µM (inactive) | > 100 µM (inactive) | > 100 µM (inactive) | > 100 µM (inactive) | > 100 µM (inactive) | > 100 µM (inactive) | > 100 µM (inactive) | > 100 µM (inactive) | > 100 µM (inactive) | > 100 µM (inactive) | > 100 µM (inactive) | – | > 100 µM (inactive) | > 100 µM (inactive) | > 100 µM (inactive) | > 100 µM (inactive) | > 100 µM (inactive) | > 100 µM
O=C(CN1CCN(c2ccccc2)CC1)c1ccc2[nH]c(=O)oc2c1 | > 100 µM (inactive) | 49.5 µM (inactive) | – | > 100 µM (inactive) | > 100 µM (inactive) | > 100 µM (inactive) | > 100 µM (inactive) | > 100 µM (inactive) | > 100 µM (inactive) | > 100 µM (inactive) | > 100 µM (inactive) | 83.4 µM (inactive) | > 100 µM (inactive) | > 100 µM (inactive) | > 100 µM (inactive) | > 100 µM (inactive) | > 100 µM (inactive) | – | 36.5 µM (inactive) | > 100 µM
Nc1n[nH]c2c(C(=O)Nc3ccc(Cl)cc3)c(N)n(N)c(=O)c12 | > 100 µM (inactive) | > 100 µM (inactive) | > 100 µM (inactive) | > 100 µM (inactive) | > 100 µM (inactive) | > 100 µM (inactive) | > 100 µM (inactive) | > 100 µM (inactive) | > 100 µM (inactive) | > 100 µM (inactive) | > 100 µM (inactive) | > 100 µM (inactive) | > 100 µM (inactive) | – | > 100 µM (inactive) | > 100 µM (inactive) | > 100 µM (inactive) | > 100 µM (inactive) | > 100 µM (inactive) | > 100 µM
